Laboratory results as given in patent US11945790B2 (ImmunoMolecular Therapeutics, Inc., priority 2020, dated 2024).

Target: HLA-DQ2 (Homo sapiens, UniProt P01909+P01920)
Test: Inhibition of IL-2 secretion by TCR transductants stimulated by α-gliadin peptides presented by HLA-DQ2 expressing K562 cells (ELISA)
Format: cell-based
Conditions: tested as trans racemate unless otherwise noted, lines naming several Examples = stereoisomer mixture of those Examples; for % Inh at 200 uM: inhibition of IL-2 secretion at 200 uM
Method: Three commercially available analogues of the DQ2 binding molecules of the invention were tested for their ability to inhibit stimulation of T cell receptor (TCR) transductants in the presence of HLA-DQ2 expressing cells presenting known α-gliadin epitopes.
Using a previously published in vitro assay (Ostrov D, et al. Methyldopa blocks MHC class II binding to disease specific antigens in autoimmune diabetes. J Clin Invest. 2018:128 (5)) the ability of these DQ2 binding analogues to inhibit interleukin-2 (IL-2) secretion by TCR transductants stimulated by α-gliadin peptides presented by HLA-DQ2 was determined. Individual TCR transductants (recognizing a I-gliadin or a II-gliadin) were cultured with a gliadin peptide plus the small molecule analogues in the presence of HLA-DQ2 expressing K562 cells serving as antigen presenting cells. TCR transductants cultured with no gliadin peptide served as the negative control, and incubation with an anti-CD3 antibody (eBioscience; clone 2C11) served as a positive control for the TCR transductant. Secreted IL-2 in the culture supernatant was measured using a highly sensitive enzyme-linked immunosorbent assay (ELISA). […] Assays for effects on cell viability and for specificity, assayed in the absence of gliadin peptide or in the presence of a stimulating anti-CD3 antibody, were performed. Unless otherwise noted, the stereochemistry shown below represents the relative configuration. Further, unless otherwise noted, compounds were tested as the trans racemate.

Sequence of HLA-DQ2 (P01920 33-261 limits assumed, other chains not shown): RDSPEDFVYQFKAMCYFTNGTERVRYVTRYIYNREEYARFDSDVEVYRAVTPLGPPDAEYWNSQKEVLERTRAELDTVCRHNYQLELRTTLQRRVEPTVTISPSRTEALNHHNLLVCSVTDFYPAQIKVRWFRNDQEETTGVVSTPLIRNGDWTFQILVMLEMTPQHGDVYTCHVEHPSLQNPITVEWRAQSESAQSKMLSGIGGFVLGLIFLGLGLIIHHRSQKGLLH

SMILES | % Inh at 200 uM | EC50 (inhibition of IL-2 secretion, dose-response) [µM]
O=C(CSc1ccccc1)N1CCN(C(=O)[C@@H]2C[C@H]2c2ccccc2)CC1 (relative stereo) [Example 49, 1-(4-(Trans-2-phenylcyclopropane-1-carbonyl)piperazin-1-yl)-2-(phenylthio) ethan-1-one] | C (C=25-49%) | –
O=C(c1ccccc1C(F)(F)F)N1CCN(C(=O)C2CC2c2ccc3c(c2)OCO3)CC1 (stereo not drawn) [Example 21] | C (C=25-49%) | –
O=C(CSC1CCCC1)N1CCN(C(=O)[C@H]2C[C@@H]2c2ccccc2O)CC1 [Example 37] | B (B=50-74%) | –
O=C(O)CCOCC(=O)N1CCN(C(=O)[C@@H]2C[C@H]2c2ccccc2)CC1 [Example 110] | D (D=0-24%) | –
O=C(COc1cccc(F)c1)N1CCN(C(=O)[C@@H]2C[C@H]2c2ccccc2)CC1 [Example 99] | B (B=50-74%) | –
CC(C)SCC(=O)N1CCN(C(=O)[C@@H]2C[C@H]2c2ccccc2)CC1 [Example 45] | C (C=25-49%) | –
O=C(CSc1ccc(F)cc1Cl)N1CCN(C(=O)[C@@H]2C[C@H]2c2ccccc2)CC1 (relative stereo) [Example 59, 2-((2-Chloro-4-fluorophenyl)thio)-1-(4-(trans-2-phenylcyclo-propanecarbonyl)piperazin-1-yl)ethanone] | C (C=25-49%) | –
O=C(CN1CCCC1=O)N1CCN(C(=O)[C@@H]2C[C@H]2c2ccccc2)CC1 [Example 115] | D (D=0-24%) | –
CC1(c2ccccc2O)CC1C(=O)N1CCN(C(=O)CSC2CCCC2)CC1 (stereo not drawn) [Example 67] | C (C=25-49%) | –
CC(C)c1ccc(SCC(=O)N2CCN(C(=O)[C@@H]3C[C@H]3c3ccccc3)CC2)cc1 (relative stereo) [Example 54, 2-((4-Isopropylphenyl)thio)-1-(4-(trans-2-phenylcyclopropane-1-carbonyl)piperazin-1-yl) ethan-1-one] | B (B=50-74%) | –
O=C(CNC1CCCC1)N1CCN(C(=O)[C@H]2CC2c2ccccc2)CC1 (stereo partly drawn) [Example 81] | A (A=≥75%) | –
O=C(CSc1ccc(Cl)cc1)N1CCN(C(=O)[C@@H]2C[C@H]2c2ccccc2)CC1 (relative stereo) [Example 57, 2-((4-Chlorophenyl)thio)-1-(4-(trans-2-phenylcyclopropane-carbonyl)piperazin-1-yl) ethanone] | B (B=50-74%) | –
NC(=O)c1ccccc1SCC(=O)N1CCN(C(=O)[C@@H]2C[C@H]2c2ccccc2)CC1 [Example 73] | C (C=25-49%) | –
CS(=O)(=O)N1CCC(C(=O)N2CCN(C(=O)C3CC3c3ccc4c(c3)OCO4)CC2)CC1 (stereo not drawn) [Example 26] | C (C=25-49%) | –
COC(=O)c1ccc(OCC(=O)N2CCN(C(=O)[C@@H]3C[C@H]3c3ccccc3)CC2)cc1 (relative stereo) [Example 106, Methyl 4-(2-oxo-2-(4-(trans-2-phenylcyclopropanecarbonyl)piperazin-1-yl)ethoxy) benzoate] | A (A=≥75%) | 100 to 200
Cc1cc(Cl)ccc1SCC(=O)N1CCN(C(=O)[C@@H]2C[C@H]2c2ccccc2)CC1 (relative stereo) [Example 72, 2-((4-Chloro-2-methylphenyl)thio)-1-(4-(trans-2-phenylcyclo-propanecarbonyl)piperazin-1-yl) ethanone] | A (A=≥75%) | –
Cc1cc(C(=O)N2CCN(C(=O)C3CC3c3ccc4c(c3)OCO4)CC2)c(C)o1 (stereo not drawn) [Example 8] | A (A=≥75%) | –
O=C(COc1ccccc1F)N1CCN(C(=O)[C@@H]2C[C@H]2c2ccccc2)CC1 [Example 98] | B (B=50-74%) | –
O=C(CSc1ccc(F)cc1)N1CCN(C(=O)C2CC2c2ccc3c(c2)OCO3)CC1 (stereo not drawn) [Example 5] | B (B=50-74%) | –
O=C(CSC1CCCC1)N1CCN(C(=O)[C@H]2C[C@@H]2c2ccc(F)c(F)c2)CC1 [Example 35] | A (A=≥75%) | –
O=C(CSC1CCCC1)N1CCN(C(=O)[C@H]2C[C@@H]2c2ccccc2)CC1 [Example 13, 2-(Cyclopentylthio)-1-(4-((1S,2S)-2-phenylcyclopropanecarbonyl)piperazin-1-yl)ethanone] | A (A=≥75%) | –
CSCC(=O)N1CCN(C(=O)[C@@H]2C[C@H]2c2ccccc2)CC1 (relative stereo) [Example 43, [2-(Methylthio)-1-(4-(trans-2-phenylcyclopropane-1-carbonyl)piperazin-1-yl)ethan-1-one]] | C (C=25-49%) | –
O=C(CSC1CCCC1)N1CCN(C(=O)[C@H]2C[C@@H]2c2cccc(Cl)c2)CC1 [Example 32] | B (B=50-74%) | –
COc1cccc(SCC(=O)N2CCN(C(=O)[C@@H]3C[C@H]3c3ccccc3)CC2)c1 [Example 62] | C (C=25-49%) | –

SMILES | % Inh at 200 uM | EC50 (inhibition of IL-2 secretion, dose-response) [µM]
O=C(O)CCCNCC(=O)N1CCN(C(=O)[C@@H]2C[C@H]2c2ccccc2)CC1 [Example 113] | D (D=0-24%) | –
O=C(COC1CCCCC1)N1CCN(C(=O)C2CC2c2ccccc2)CC1 (stereo not drawn) [Example 40, 2-(Cyclohexyloxy)-1-(4-((trans-2-phenylcyclopropanecarbonyl)-piperazin-1-yl)ethanone] | B (B=50-74%) | –
CN(C)c1cccc(C(=O)N2CCN(C(=O)C3CC3c3ccc4c(c3)OCO4)CC2)c1 (stereo not drawn) [Example 20] | B (B=50-74%) | –
O=C(C1CCCC1)N1CCN(C(=O)C2CC2c2ccc3c(c2)OCO3)CC1 (stereo not drawn) [Example 25] | A (A=≥75%) | –
Cc1ccc(SCC(=O)N2CCN(C(=O)[C@@H]3C[C@H]3c3ccccc3)CC2)c(F)c1 (relative stereo) [Example 71, 2-((2-Fluoro-4-methylphenyl)thio)-1-(4-(trans-2-phenylcyclopropane-1-carbonyl)piperazin-1-yl) ethan-1-one] | A (A=≥75%) | –
CCCCSCC(=O)N1CCN(C(=O)[C@@H]2C[C@H]2c2ccccc2)CC1 (relative stereo) [Example 47, 2-(Butylthio)-1-(4-(trans-2-phenylcyclopropane-carbonyl)piperazin-1-yl)ethanone] | B (B=50-74%) | –
O=C(c1cc(Cl)ccc1Cl)N1CCN(C(=O)C2CC2c2ccc3c(c2)OCO3)CC1 (stereo not drawn) [Example 18] | A (A=≥75%) | –
CSc1ccccc1C(=O)N1CCN(C(=O)C2CC2c2ccc3c(c2)OCO3)CC1 (stereo not drawn) [Example 19] | C (C=25-49%) | –
CCCCOCC(=O)N1CCN(C(=O)[C@@H]2C[C@H]2c2ccccc2)CC1 (relative stereo) [Example 46, 2-Butoxy-1-(4-(trans-2-phenylcyclopropanecarbonyl)piperazin-1-yl) ethanone] | B (B=50-74%) | –
O=C(CN(C(=O)OCc1ccccc1)C1CCCC1)N1CCN(C(=O)[C@@H]2CC2c2ccccc2)CC1 (stereo partly drawn) [Example 83] | A (A=≥75%) | –
Cc1nnsc1C(=O)N1CCN(C(=O)C2CC2c2ccc3c(c2)OCO3)CC1 (stereo not drawn) [Example 9] | C (C=25-49%) | –
Cc1ccc(SCC(=O)N2CCN(C(=O)[C@@H]3C[C@H]3c3ccccc3)CC2)c(C)c1 [Example 70] | A (A=≥75%) | –
COCC(=O)N1CCN(C(=O)[C@@H]2C[C@H]2c2ccccc2)CC1 (relative stereo) [Example 42, [2-Methoxy-1-(4-(trans-2-phenylcyclopropane-1-carbonyl)piperazin-1-yl)ethan-1-one]] | C (C=25-49%) | –
O=C(COC1CCCCCC1)N1CCN(C(=O)[C@@H]2C[C@H]2c2ccccc2)CC1 (relative stereo) [Example 52, 2-(Cycloheptyloxy)-1-(4-(trans-2-phenylcyclopropane-carbonyl)piperazin-1-yl)ethanone] | A (A=≥75%) | –
O=C(Cc1c(F)cccc1Cl)N1CCN(C(=O)C2CC2c2ccc3c(c2)OCO3)CC1 (stereo not drawn) [Example 23] | C (C=25-49%) | –
O=C(O)c1ccccc1OCC(=O)N1CCN(C(=O)[C@@H]2C[C@H]2c2ccccc2)CC1 [Example 97] | C (C=25-49%) | –
O=CNc1ccccc1SCC(=O)N1CCN(C(=O)[C@@H]2C[C@H]2c2ccccc2)CC1 [Example 86] | C (C=25-49%) | –
Cc1noc(C)c1CCC(=O)N1CCN(C(=O)C2CC2c2ccc3c(c2)OCO3)CC1 (stereo not drawn) [Example 15] | C (C=25-49%) | –
Cc1cc(F)ccc1SCC(=O)N1CCN(C(=O)[C@@H]2C[C@H]2c2ccccc2)CC1 (relative stereo) [Example 61, 2-((4-Fluoro-2-methylphenyl)thio)-1-(4-(trans-2-phenylcyclopropanecarbonyl)-piperazin-1-yl)ethanone] | B (B=50-74%) | –
COc1ccccc1SCC(=O)N1CCN(C(=O)[C@@H]2C[C@H]2c2ccccc2)CC1 [Example 63] | B (B=50-74%) | –
COC(=O)c1cccc(OCC(=O)N2CCN(C(=O)[C@@H]3C[C@H]3c3ccccc3)CC2)c1 [Example 101] | A (A=≥75%) | –
O=C(COc1ccc(F)cc1)N1CCN(C(=O)C2CC2c2ccc3c(c2)OCO3)CC1 (stereo not drawn) [Example 6] | A (A=≥75%) | –
COc1ccccc1[C@H]1C[C@@H]1C(=O)N1CCN(C(=O)CSC2CCCC2)CC1 [Example 34] | B (B=50-74%) | –
